Test results taken from patent US20120245184A1 (Aderans Research Institute, Inc., priority 2006, published 2012).

Assays:
C57BL/6 male mice [1] = assay: DHT-induced alopecia (mouse model of male pattern baldness); assay type: in vivo; details: DHT pellet (2.5 mg 21 day) implanted subcutaneously; dosed topically once; visually graded for melanogenesis and hair regrowth
Experimental: (§1) A mouse model of male pattern baldness is used to investigate the effectiveness of the present compounds for growing hair. Agonists for the sonic hedgehog pathway that act by binding and activating Smoothened were tested in a formulation of 50:30:20 PG:EtOH:water or 5:95 DMSO:acetone vehicle. C57BL/6 male mice (48-52 days old on arrival) from Charles River Labs were used on the study. The mice were housed and cared for according to established procedures. Food and water were ad libitum. On Day 0, the mice were shaved on their lower back, an area of ˜1.5 inches×˜2 inches with Wahl clippers using a surgical blade. On day −3, the mice were anesthetized with isoflurane, their back was rinsed with a pad of 70% ethanol, a placebo pellet or a DHT pellet (2.5 mg 21 day pellet) were implanted subcutaneously between the shoulder blades with a 10 gauge trochar. DHT pellet transplantation results in maintenance of existing hair follicles in the resting (telogen) phase. The hole was stapled with a sterile autoclip and the mice were returned to their cage after awaking. The mice were dosed topically once and visually graded daily, except weekends, for melanogenesis and hair regrowth of fur in the dosed area (Table 4).
In the absence of treatment with the present compounds, the follicles remain in telogen rather than following the normal time course of the mouse hair cycle.

C57BL/6 male mice [2] = assay: C57BL/6 hair growth after topical dosing; assay type: in vivo, mouse; details: dosed topically once on shaved lower back; visually graded for melanogenesis and hair regrowth
Experimental: as §1

Row | SMILES | Androgenetic Alopecia (C57BL/6 male mice [1]) | C57BL/6 Hair Growth (C57BL/6 male mice [2])
1 | CN[C@H]1CC[C@H](N(Cc2cc(-c3ccccc3)ccc2OC)C(=O)c2sc3ccccc3c2Cl)CC1 | yes | yes
2 | CN[C@H]1CC[C@H](N(Cc2cc(-c3cc(C)nc(C)c3)ccc2OC)C(=O)c2sc3ccccc3c2Cl)CC1 | yes | yes
3 | CN[C@H]1CC[C@H](N(Cc2cc(-c3ccc(C(N)=O)cc3)ccc2OC)C(=O)c2sc3c(F)ccc(F)c3c2Cl)CC1 | yes | yes
4 | CN[C@H]1CC[C@H](N(Cc2cc(-c3ccnc(C)c3)ccc2OC)C(=O)c2sc3ccccc3c2Cl)CC1 | yes | yes
5 | CN[C@H]1CC[C@H](N(Cc2cc(-c3ccc(S(C)(=O)=O)cc3)ccc2OC)C(=O)c2sc3ccccc3c2Cl)CC1 | yes | yes
6 | CCOc1ccc(-c2ccc(C)nc2)cc1CN(C(=O)c1sc2ccccc2c1Cl)[C@H]1CC[C@H](NC)CC1 | – | yes
7 | CN[C@H]1CC[C@H](N(Cc2cc(-c3ccnc(C(=O)N(C)C)c3)ccc2OC)C(=O)c2sc3c(F)ccc(F)c3c2Cl)CC1 | yes | yes
8 | CN[C@H]1CC[C@H](N(Cc2cc(-c3ccncc3)ccc2OC)C(=O)c2sc3ccccc3c2Cl)CC1 | yes | yes
9 | CN[C@H]1CC[C@H](N(Cc2cc(-c3ccc(NS(C)(=O)=O)nc3)ccc2OC)C(=O)c2sc3c(F)ccc(F)c3c2Cl)CC1 | – | yes
10 | CCOc1ccc(-c2ccc(C#N)cc2)cc1CN(C(=O)c1sc2ccccc2c1Cl)[C@H]1CC[C@H](NC)CC1 | – | yes
11 | CN[C@H]1CC[C@H](N(Cc2cc(-c3ccnc(C(=O)OC)c3)ccc2OC)C(=O)c2sc3c(F)ccc(F)c3c2Cl)CC1 | yes | yes
12 | CN[C@H]1CC[C@H](N(Cc2cc(-c3ccnc(C(=O)O)c3)ccc2OC)C(=O)c2sc3c(F)ccc(F)c3c2Cl)CC1 | – | no
13 | CN[C@H]1CC[C@H](N(Cc2cc(-c3ccc(N)nc3)ccc2OC)C(=O)c2sc3cccc(F)c3c2Cl)CC1 [drawing 702] | yes | yes
